Measured values from US12398097B2, “WDR5-MYC inhibitors” (Vanderbilt University, priority 2019, dated 2025).

biological target: WDR5 (Homo sapiens, UniProt P61964); test: Competition-based fluorescence polarization anisotropy assay; details: binding to WDR5; displacement of FITC-labeled small molecule probe (analogous to Example J2 or HCH-25) or peptide probe FITC-AHx-SEEEIDVVSV; pH 6.0; Ki converted from IC50
Procedure, shortened: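 Competition fluorescence polarization anisotropy binding to WDR5 using a FITC-labeled peptide probe or a fluorescently labeled small-molecule probe. Buffer: 200 mM phosphate, 300 mM NaCl, 0.5 mM TCEP, 0.1% Chaps, pH 6.0. Displacement data were converted to Ki.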

| Structure (SMILES) | Ki [nM] |
| --- | --- |
| CNC(=O)c1cc(C2(C#N)CCCCC2)cc(NS(=O)(=O)c2cc(Br)cc(Cl)c2O)c1O [Example J236, 3-((5-Bromo-3-chloro-2-hydroxyphenyl)sulfonamido)-5-(1-cyanocyclohexyl)-2-hydroxy-N-methylbenzamide] | 240 |
| COC[C@H]1CCCN1C(=O)c1cc(Cl)cc(NS(=O)(=O)c2cc(Br)ccc2OC)c1O [Example J57, (R)-5-Bromo-N-(5-chloro-2-hydroxy-3-(2-(methoxymethyl)pyrrolidine-1-carbonyl)phenyl)-2-methoxybenzenesulfonamide] | 8440 |
| COc1ccc(Br)cc1S(=O)(=O)Nc1cc(Cl)cc(C(=O)O)c1O [Example J2, 3-((5-Bromo-2-methoxyphenyl)sulfonamido)-5-chloro-2-hydroxybenzoic acid] | 180 |
| CNC(=O)c1cc(C2(C#N)CCCCC2)cc(NS(=O)(=O)c2cc(Br)ccc2O)c1O [Example J233, 3-((5-Bromo-2-hydroxyphenyl)sulfonamido)-5-(1-cyanocyclohexyl)-2-hydroxy-N-methylbenzamide] | 100 |
| N#CC1(c2cc(NS(=O)(=O)c3cc(Br)ccc3O)c(O)c(C(=O)NCc3ccc(=O)[nH]c3)c2)CCC1 [Example J230, 3-((5-Bromo-2-hydroxyphenyl)sulfonamido)-5-(1-cyanocyclobutyl)-2-hydroxy-N-((6-oxo-1,6-dihydropyridin-3-yl)methyl)benzamide] | 630 |
| CNC(=O)c1c(O)c(NS(=O)(=O)c2cc(Br)cc(Cl)c2O)cc(C2CC2)c1F [Example J146, 3-((5-Bromo-3-chloro-2-hydroxyphenyl)sulfonamido)-5-cyclopropyl-6-fluoro-2-hydroxy-N-methylbenzamide] | 40 |
| N#CC1(c2cc(NS(=O)(=O)c3cc(Br)cc(Cl)c3O)c(O)c(C(N)=O)c2)CCCCC1 [Example J235, 3-((5-Bromo-3-chloro-2-hydroxyphenyl)sulfonamido)-5-(1-cyanocyclohexyl)-2-hydroxybenzamide] | 80 |
| N#CC1(c2ccc(O)c(NS(=O)(=O)c3cc(Br)ccc3O)c2)CCCCC1 [JDM-06-030C, 5-Bromo-N-(5-(1-cyanocyclohexyl)-2-hydroxyphenyl)-2-hydroxybenzenesulfonamide] | 230 |
| O=C(NCCN1CCOCC1)c1cc(NS(=O)(=O)c2cc(Br)ccc2O)cc(C2CC2)c1F [Example J137, 5-((5-Bromo-2-hydroxyphenyl)sulfonamido)-3-cyclopropyl-2-fluoro-N-(2-morpholinoethyl)benzamide] | 2980 |
| O=C(O)c1cc(C2CC2)cc(NS(=O)(=O)c2cc(Br)ccc2O)c1O [Example J68, 3-((5-Bromo-2-hydroxyphenyl)sulfonamido)-5-cyclopropyl-2-hydroxybenzoic acid] | 50 |
| O=C(c1cc(OC(F)(F)F)cc(NS(=O)(=O)c2cc(Br)ccc2O)c1O)N1CC[C@@H](O)C1 [Example J173, (R)-5-Bromo-2-hydroxy-N-(2-hydroxy-3-(3-hydroxypyrrolidine-1-carbonyl)-5-(trifluoromethoxy)phenyl)benzenesulfonamide] | 1560 |
| COC[C@H]1CCCN1C(=O)c1cc(OC(F)(F)F)cc(NS(=O)(=O)c2cc(Br)ccc2OC)c1O [Example J181, (R)-5-bromo-N-(2-hydroxy-3-(2-(methoxymethyl)pyrrolidine-1-carbonyl)-5-(trifluoromethoxy)phenyl)-2-methoxybenzenesulfonamide] | 5880 |
| COCCNC(=O)c1cc(Cl)cc(NS(=O)(=O)c2cc(Br)ccc2OC)c1O [Example J45, 3-((5-Bromo-2-methoxyphenyl)sulfonamido)-5-chloro-2-hydroxy-N-(2-methoxyethyl)benzamide] | 990 |
| O=C(O)c1cc(Cl)cc(NS(=O)(=O)c2cc(Br)c(F)cc2O)c1O [Example J9, 3-((5-Bromo-4-fluoro-2-hydroxyphenyl)sulfonamido)-5-chloro-2-hydroxybenzoic acid] | 2670 |
| O=C(NCCN1CCOCC1)c1c(O)c(NS(=O)(=O)c2cc(Br)ccc2O)cc(C2CC2)c1F [Example J125, 3-((5-Bromo-2-hydroxyphenyl)sulfonamido)-5-cyclopropyl-6-fluoro-2-hydroxy-N-(2-morpholinoethyl)benzamide] | 1320 |
| O=C(c1cc(Cl)cc(NS(=O)(=O)c2cc(Br)ccc2O)c1O)N1CCOCC1 [Example J30, 5-Bromo-N-(5-chloro-2-hydroxy-3-(morpholine-4-carbonyl)phenyl)-2-hydroxybenzenesulfonamide] | 2360 |
| O=C(NC1COC1)c1cc(NS(=O)(=O)c2cc(Br)cc(Cl)c2O)cc(C2CC2)c1F [Example J155, 5-((5-Bromo-3-chloro-2-hydroxyphenyl)sulfonamido)-3-cyclopropyl-2-fluoro-N-(oxetan-3-yl)benzamide] | 330 |
| COC[C@@H]1CCCN1C(=O)c1cc(Cl)cc(NS(=O)(=O)c2cc(Br)ccc2OC)c1O [Example J56, (S)-5-Bromo-N-(5-chloro-2-hydroxy-3-(2-(methoxymethyl)pyrrolidine-1-carbonyl)phenyl)-2-methoxybenzenesulfonamide] | 4640 |
| O=C(NCc1ccccn1)c1cc(Cl)cc(NS(=O)(=O)c2cc(Br)ccc2O)c1O [Example J31, 3-((5-Bromo-2-hydroxyphenyl)sulfonamido)-5-chloro-2-hydroxy-N-(pyridin-2-ylmethyl)benzamide] | 790 |
| O=C(NC1CCOC1)c1cc(Cl)cc(NS(=O)(=O)c2cc(Br)ccc2O)c1O (stereo not shown) [Example J18, 3-((5-Bromo-2-hydroxyphenyl)sulfonamido)-5-chloro-2-hydroxy-N-(tetrahydrofuran-3-yl)benzamide] | 1350 |
| O=C(NC1CCOC1)c1cc(NS(=O)(=O)c2cc(Br)ccc2O)cc(C2CC2)c1F (stereo not shown) [Example J139, 5-((5-Bromo-2-hydroxyphenyl)sulfonamido)-3-cyclopropyl-2-fluoro-N-(tetrahydrofuran-3-yl)benzamide] | 12200 |
| N#CC1(c2cc(NS(=O)(=O)c3cc(Br)ccc3O)c(O)c(C(=O)NCCO)c2)CCC1 [Example J228, 3-((5-Bromo-2-hydroxyphenyl)sulfonamido)-5-(1-cyanocyclobutyl)-2-hydroxy-N-(2-hydroxyethyl)benzamide] | 370 |
| O=S(=O)(Nc1cc(Cl)ccc1O)c1cc(Br)ccc1O [HCH-1-143-2, 5-Bromo-N-(5-chloro-2-hydroxyphenyl)-2-hydroxybenzenesulfonamide] | 1250 |
| N#CC1(c2ccc(O)c(NS(=O)(=O)c3cc(Br)ccc3O)c2)CCCC1 [JDM-06-030A, 5-Bromo-N-(5-(1-cyanocyclopentyl)-2-hydroxyphenyl)-2-hydroxybenzenesulfonamide] | 610 |
| COc1cc(F)c(Br)cc1S(=O)(=O)Nc1cc(C2CC2)cc(C(N)=O)c1O [Example J106, 3-((5-Bromo-4-fluoro-2-methoxyphenyl)sulfonamido)-5-cyclopropyl-2-hydroxybenzamide] | 1530 |
| CNC(=O)c1cc(NS(=O)(=O)c2cc(Br)cc(Cl)c2O)cc(C2CC2)c1F [Example J151, 5-((5-Bromo-3-chloro-2-hydroxyphenyl)sulfonamido)-3-cyclopropyl-2-fluoro-N-methylbenzamide] | 210 |

Other lines, results leading:

| Ki [nM] | Structure (SMILES) |
| --- | --- |
| 820 | CS(=O)(=O)c1cc(NS(=O)(=O)c2cc(Br)ccc2O)cc(OC(F)(F)F)c1 [Example S11, 5-Bromo-2-hydroxy-N-(3-(methylsulfonyl)-5-(trifluoromethoxy)phenyl)benzenesulfonamide] |
| 12400 | O=[N+]([O-])c1cc(Cl)cc(NS(=O)(=O)c2cc(Br)ccc2O)c1O [NE6, 5-Bromo-N-(5-chloro-2-hydroxy-3-nitrophenyl)-2-hydroxybenzenesulfonamide] |
| 870 | COc1c(Cl)cc(Br)cc1S(=O)(=O)Nc1cc(C2(C#N)CCC2)cc(C(=O)O)c1O [SN-4, 3-((5-bromo-3-chloro-2-methoxyphenyl)sulfonamido)-5-(1-cyanocyclobutyl)-2-hydroxybenzoic acid] |
| 7240 | COc1cc(OC)c(S(=O)(=O)Nc2cc(Cl)cc([N+](=O)[O-])c2O)cc1Br [NE8, 5-Bromo-N-(5-chloro-2-hydroxy-3-nitrophenyl)-2,4-dimethoxybenzenesulfonamide] |
| 90 | CS(=O)(=O)c1cc(Cl)cc(NS(=O)(=O)c2cc(Br)ccc2O)c1O [Example S17, 5-Bromo-N-(5-chloro-2-hydroxy-3-(methylsulfonyl)phenyl)-2-hydroxybenzenesulfonamide] |
| 2620 | CNC(=O)c1cc(C2(C#N)CCC2)cc(NS(=O)(=O)c2cc(Br)c(F)cc2OC)c1O [SN-5, 3-((5-bromo-4-fluoro-2-methoxyphenyl)sulfonamido)-5-(1-cyanocyclobutyl)-2-hydroxy-N-methylbenzamide] |
| 31300 | CCN(CC)CCS(=O)(=O)c1cc(Cl)cc(NS(=O)(=O)c2cc(Br)cc3cccnc23)c1 [Example S43, 6-Bromo-N-(3-chloro-5-((2-(diethylamino)ethyl)sulfonyl)phenyl)quinoline-8-sulfonamide] |
| 730 | CN1CCN(CCNS(=O)(=O)c2cc(Cl)cc(NS(=O)(=O)c3cc(Br)cc(Cl)c3O)c2O)CC1 [Example S33, 5-Bromo-3-chloro-N-(5-chloro-2-hydroxy-3-(N-(2-(4-methylpiperazin-1-yl)ethyl)sulfamoyl)phenyl)-2-hydroxybenzenesulfonamide] |
| 230 | CCC(O)CNC(=O)c1cc(OC(F)(F)F)cc(NS(=O)(=O)c2cc(Br)cc(Cl)c2O)c1O (stereo not shown) [HCH-41, 3-((5-Bromo-3-chloro-2-hydroxyphenyl)sulfonamido)-2-hydroxy-N-(2-hydroxybutyl)-5-(trifluoromethoxy)benzamide] |
| 70 | CS(=O)(=O)c1cc(NS(=O)(=O)c2cc(Br)cc(Cl)c2O)cc(OC(F)(F)F)c1 [Example S12, 5-Bromo-3-chloro-2-hydroxy-N-(3-(methylsulfonyl)-5-(trifluoromethoxy)phenyl)benzenesulfonamide] |
| 460 | CCc1cc(NS(=O)(=O)c2cc(Br)cc(F)c2O)c(O)c(C(=O)O)c1 [HCH-21, 3-((5-Bromo-3-fluoro-2-hydroxyphenyl)sulfonamido)-5-ethyl-2-hydroxybenzoic acid] |
